Literature values, collected in PubChem BioAssay AID1259409 (Chemical Carcinogenesis Research Information System (CCRIS), 2018).

System: rodent chemically induced tumor inhibition, incidence and multiplicity
Assay: CCRIS tumor inhibitor studies
Details: Dose [Inhibitor]: 0, Route [Inhibitor]: ORAL

In the case of Oc1ccccc1O, the “tumour outcome (control, treated, inhibition, significance)” value (Carcinogen: N-BIS(2-HYDROXYPROPYL)NITROSAMINE, 53609-64-6, 0.8% IN DIET FOR 30 WK BEGINNING POST CARCINOGEN TREATMENT (STUDY DURATION: 32 WK), Species: RAT, Strain/Sex: F344/MALE, Target Tissue: Type of Lesion: KIDNEY: PAPILLOMA OR TRANSITIONAL CELL CARCINOMA, Dose [Carcinogen]: 0.1% IN DRINKING WATER FOR 2 WK, Promoter: NONE USED) is given as 10%, 10%, 0%, not significant, the “tumour outcome (control, treated, inhibition, significance)” value (Carcinogen: N-BIS(2-HYDROXYPROPYL)NITROSAMINE, 53609-64-6, 0.8% IN DIET FOR 30 WK BEGINNING POST CARCINOGEN TREATMENT (STUDY DURATION: 32 WK), Species: RAT, Strain/Sex: F344/MALE, Target Tissue: Type of Lesion: LUNG: ADENOMA, Dose [Carcinogen]: 0.1% IN DRINKING WATER FOR 2 WK, Promoter: NONE USED) is given as 100%, 95%, 5%, not calculated and the “tumour outcome (control, treated, inhibition, significance)” value (Carcinogen: N-BIS(2-HYDROXYPROPYL)NITROSAMINE, 53609-64-6, 0.8% IN DIET FOR 30 WK BEGINNING POST CARCINOGEN TREATMENT (STUDY DURATION: 32 WK), Species: RAT, Strain/Sex: F344/MALE, Target Tissue: Type of Lesion: LUNG: CARCINOMA, Dose [Carcinogen]: 0.1% IN DRINKING WATER FOR 2 WK, Promoter: NONE USED) is given as 45%, 20%, 56%, not calculated. The outcome (Carcinogen: N-BIS(2-HYDROXYPROPYL)NITROSAMINE, 53609-64-6, 0.8% IN DIET FOR 30 WK BEGINNING POST CARCINOGEN TREATMENT (STUDY DURATION: 32 WK), Species: RAT, Strain/Sex: F344/MALE, Target Tissue: Type of Lesion: THYROID: ADENOMA, Dose [Carcinogen]: 0.1% IN DRINKING WATER FOR 2 WK, Promoter: NONE USED) was 5%, 5%, 0, not significant, the “tumour outcome (control, treated, inhibition, significance)” value (Carcinogen: N-BIS(2-HYDROXYPROPYL)NITROSAMINE, 53609-64-6, 0.8% IN DIET FOR 30 WK BEGINNING POST CARCINOGEN TREATMENT (STUDY DURATION: 32 WK), Species: RAT, Strain/Sex: F344/MALE, Target Tissue: Type of Lesion: THYROID: CARCINOMA, Dose [Carcinogen]: 0.1% IN DRINKING WATER FOR 2 WK, Promoter: NONE USED) was 20%, 5%, 75%, not calculated and the “tumour outcome (control, treated, inhibition, significance)” value (Carcinogen: N-NITROSOBIS(2-OXOPROPYL)AMINE, 60599-38-4, 0.75% IN DIET FOR 16 WK BEGINNING 2 WK POST CARCINOGEN TREATMENT (STUDY DURATION: 20 WK), Species: HAMSTER, Strain/Sex: SYRIAN/FEMALE, Target Tissue: Type of Lesion: GALL BLADDER: ADENOMA, Dose [Carcinogen]: 70 MG/KG IN SALINE FOLLOWED 2 WK LATER BY SECOND TREATMENT) was 9/18 (50%), 7/10 (70%), -40%, not calculated. For the same compound, the “tumour outcome (control, treated, inhibition, significance)” value (Carcinogen: N-NITROSOBIS(2-OXOPROPYL)AMINE, 60599-38-4, 0.75% IN DIET FOR 16 WK BEGINNING 2 WK POST CARCINOGEN TREATMENT (STUDY DURATION: 20 WK), Species: HAMSTER, Strain/Sex: SYRIAN/FEMALE, Target Tissue: Type of Lesion: LIVER: CHOLANGIOCARCINOMA, Dose [Carcinogen]: 70 MG/KG IN SALINE FOLLOWED 2 WK LATER BY SECOND TREATMENT) was 16/18 (89%), 8/10 (80%), 10%, not calculated, the “tumour outcome (control, treated, inhibition, significance)” value (Carcinogen: N-NITROSOBIS(2-OXOPROPYL)AMINE, 60599-38-4, 0.75% IN DIET FOR 16 WK BEGINNING 2 WK POST CARCINOGEN TREATMENT (STUDY DURATION: 20 WK), Species: HAMSTER, Strain/Sex: SYRIAN/FEMALE, Target Tissue: Type of Lesion: LIVER: NEOPLASTIC NODULE, Dose [Carcinogen]: 70 MG/KG IN SALINE FOLLOWED 2 WK LATER BY SECOND TREATMENT) was 18/18 (100%), 10/10 (100%), 0%, not significant and the “tumour outcome (control, treated, inhibition, significance)” value (Carcinogen: N-NITROSOBIS(2-OXOPROPYL)AMINE, 60599-38-4, 0.75% IN DIET FOR 16 WK BEGINNING 2 WK POST CARCINOGEN TREATMENT (STUDY DURATION: 20 WK), Species: HAMSTER, Strain/Sex: SYRIAN/FEMALE, Target Tissue: Type of Lesion: PANCREAS: ADENOCARCINOMA, Dose [Carcinogen]: 70 MG/KG IN SALINE FOLLOWED 2 WK BY SECOND TREATMENT) was 14/18 (78%), 6/10 (60%), 23%, not calculated. For the same compound, the “tumour outcome (control, treated, inhibition, significance)” value (Carcinogen: N-NITROSOBIS(2-OXOPROPYL)AMINE, 60599-38-4, 1.5% IN DIET FOR 16 WK BEGINNING 2 WK POST CARCINOGEN TREATMENT (STUDY DURATION: 20 WK), Species: HAMSTER, Strain/Sex: SYRIAN/FEMALE, Target Tissue: Type of Lesion: GALL BLADDER: ADENOMA, Dose [Carcinogen]: 70 MG/KG IN SALINE FOLLOWED 2 WK LATER BY SECOND TREATMENT) was 9/18 (50%), 10/17 (59%), -18%, not calculated, the “tumour outcome (control, treated, inhibition, significance)” value (Carcinogen: N-NITROSOBIS(2-OXOPROPYL)AMINE, 60599-38-4, 1.5% IN DIET FOR 16 WK BEGINNING 2 WK POST CARCINOGEN TREATMENT (STUDY DURATION: 20 WK), Species: HAMSTER, Strain/Sex: SYRIAN/FEMALE, Target Tissue: Type of Lesion: GALL BLADDER: CARCINOMA, Dose [Carcinogen]: 70 MG/KG IN SALINE FOLLOWED 2 WK LATER BY SECOND TREATMENT) was 1/18 (6%), 2/17 (12%), -100%, not calculated and the “tumour outcome (control, treated, inhibition, significance)” value (Carcinogen: N-NITROSOBIS(2-OXOPROPYL)AMINE, 60599-38-4, 1.5% IN DIET FOR 16 WK BEGINNING 2 WK POST CARCINOGEN TREATMENT (STUDY DURATION: 20 WK), Species: HAMSTER, Strain/Sex: SYRIAN/FEMALE, Target Tissue: Type of Lesion: LIVER: CHOLANGIOCARCINOMA, Dose [Carcinogen]: 70 MG/KG IN SALINE FOLLOWED 2 WK LATER BY SECOND TREATMENT) was 16/18 (89%), 11/17 (65%), 27%, not calculated. For the same compound, the “tumour outcome (control, treated, inhibition, significance)” value (Carcinogen: N-NITROSOBIS(2-OXOPROPYL)AMINE, 60599-38-4, 1.5% IN DIET FOR 16 WK BEGINNING 2 WK POST CARCINOGEN TREATMENT (STUDY DURATION: 20 WK), Species: HAMSTER, Strain/Sex: SYRIAN/FEMALE, Target Tissue: Type of Lesion: LIVER: NEOPLASTIC NODULE, Dose [Carcinogen]: 70 MG/KG IN SALINE FOLLOWED 2 WK LATER BY SECOND TREATMENT) was 100%, 100%, 0%, not significant and the “tumour outcome (control, treated, inhibition, significance)” value (Carcinogen: N-NITROSOBIS(2-OXOPROPYL)AMINE, 60599-38-4, 1.5% IN DIET FOR 16 WK BEGINNING 2 WK POST CARCINOGEN TREATMENT (STUDY DURATION: 20 WK), Species: HAMSTER, Strain/Sex: SYRIAN/FEMALE, Target Tissue: Type of Lesion: PANCREAS: ADENOCARCINOMA, Dose [Carcinogen]: 70 MG/KG IN SALINE FOLLOWED 2 WK LATER BY SECOND TREATMENT) was 14/18 (78%), 13/17 (76%), 3%, not calculated.
